This note sets out measurements from patent US20110190365A1, “Insecticidal 4-phenyl-1H-pyrazoles” (Bayer Crop Science AG, priority 2008, published 2011).

This data set is described as follows: log P by HPLC on a reversed-phase column (C18), EEC Directive 79/831 Annex V.A8. Type of data set: physicochemical. The method, then: The stated log P values were determined in accordance with EEC Directive 79/831 Annex V.A8 by HPLC (High Performance Liquid Chromatography) using a reversed-phase column (C18).
The mark [1] stands for this setting: HPLC, reversed-phase C18, mobile phase with formic acid.
Where [2] appears, read: HCOOH, Table 4, compounds of formula I-A-Q4.

Structures are written as SMILES.

Turning to `Cc1cc(-n2nc(C)c(-c3c(F)cccc3Cl)c2N)ccc1C(=O)NCc1ccccn1` [I-A-Q2-374], where the note is “HCOOH”, the “log P (HCOOH)” value is listed as “I-A-Q2-374: log P (HCOOH): 1.66”.

With `N#Cc1cc(-n2nc(C(F)(F)F)c(-c3cc(Cl)cc(Cl)c3)c2N)ccc1-n1nc(C(F)F)cc1C(F)F` [I-A-Q1-080], the “log P (HCOOH)” value under setting [1] is “I-A-Q1-080: log P (HCOOH): 4.64”.

For the compound `Cc1cc(-n2nc(C(F)(F)F)c(-c3ccc(Cl)cc3)c2N)ccc1C(=O)NCC(F)(F)C(F)F` [I-A-Q2-302], under “HCOOH”, the “log P (HCOOH)” value was “I-A-Q2-302: log P (HCOOH): 3.61”.

As for `Nc1c(-c2cc(F)cc(Cl)c2)c(C(F)(F)F)nn1-c1ccc(C(=O)O)cc1` [I-A-Q4-100], the “log P (HCOOH)” value under setting [2] is “I-A-Q4-100: log P (HCOOH): 3.32”.

`Cc1cc(-n2nc(C(F)(F)F)c(Br)c2N)ccc1C(=O)NCc1ccccn1` [XI-A-093]: the “log P (HCOOH)” value (HCOOH) is reported as “XI-A-093: log P (HCOOH): 1.98”.

On to `Cc1cc(-n2nc(C(F)(F)F)c(-c3cc(Cl)cc(Cl)c3)c2N)ccc1C(=O)NCCNC(=O)c1ccccn1` [I-A-Q2-036], for which the “log P (HCOOH)” value (HCOOH) is reported as “I-A-Q2-036: log P (HCOOH): 3.68”.

Take `Cc1cc(-n2nc(C(F)(F)F)c(-c3cc(Cl)cc(Cl)c3)c2N)ccc1C(=O)N(C)C` [I-A-Q2-056]: the “log P (HCOOH)” value (HCOOH) is on record as “I-A-Q2-056: log P (HCOOH): 3.93”.

Take `Cc1cc(-n2nc(C(F)(F)F)c(Cl)c2N)ccc1C(=O)O` [XI-A-085]: under “HCOOH”, the “log P (HCOOH)” value is on record as “XI-A-085: log P (HCOOH): 1.95”.

Turning to `Nc1c(-c2cc(Cl)cc(Cl)c2)c(C(F)(F)F)nn1-c1ccc(CNC(=O)CC(F)(F)F)c(Cl)c1` [I-A-Q3-021], under setting [1], the “log P (HCOOH)” value is reported as “I-A-Q3-021: log P (HCOOH): 4.48”.

`Cc1nn(-c2ccc(Cl)cn2)c(N)c1-c1c(F)cccc1F` [I-A-Q4-036]: the “log P (HCOOH)” value under setting [2] is “I-A-Q4-036: log P (HCOOH): 3.58”.

On to `Cc1cc(-n2nc(C(F)(F)F)c(-c3cc(Cl)cc(Cl)c3)c2Cl)ccc1C(=O)NCc1ncccn1` [I-A-Q2-277], for which the “log P (HCOOH)” value (HCOOH) is recorded as “I-A-Q2-277: log P (HCOOH): 4.56”.

`CCOC(=O)c1ccc(-n2nc(C(F)(F)F)c(Br)c2N)cc1` [XI-A-018]: where the note is “HCOOH”, the “log P (HCOOH)” value was “XI-A-018: log P (HCOOH): 3.60”.

As to `Nc1c(-c2cc(Cl)cc(Cl)c2)c(C(F)(F)F)nn1-c1ccc(C(=O)NC2CC2)cc1` [I-A-Q2-136], the “log P (HCOOH)” value (HCOOH) is “I-A-Q2-136: log P (HCOOH): 3.80”.

Consider `N#Cc1cc(-n2nc(C(F)(F)F)c(-c3cc(C(F)(F)F)cc(C(F)(F)F)c3)c2N)ccc1-n1cncn1` [I-A-Q1-027], for which the “log P (HCOOH)” value under setting [1] is recorded as “I-A-Q1-027: log P (HCOOH): 4.07”.

For the compound `N#Cc1cc(-n2nc(C(F)(F)F)c(-c3cc(Cl)cc(Cl)c3)c2N)ccc1-n1cc(F)cn1` [I-A-Q1-092], the “log P (HCOOH)” value under setting [1] is recorded as “I-A-Q1-092: log P (HCOOH): 4.40”.

Consider `CSc1c(-c2ccc(Cl)c(Cl)c2)c(C(F)(F)F)nn1-c1ncc(Cl)cn1` [I-A-Q4-020], for which the “log P (HCOOH)” value under setting [2] is listed as “I-A-Q4-020: log P (HCOOH): 5.22”.

For `Cc1nc(C)n(-c2ccc(-n3nc(C(F)(F)F)c(-c4cc(Cl)cc(Cl)c4)c3N)cc2C#N)n1` [I-A-Q1-083], the “log P (HCOOH)” value under setting [1] is “I-A-Q1-083: log P (HCOOH): 3.84”.

`CC(NC(=O)c1ccc(-n2nc(C(F)(F)F)c(-c3cc(F)cc(Cl)c3)c2N)cc1)c1ccccc1` (stereo not shown) [I-A-Q2-090]: the “log P (HCOOH)” value (HCOOH) was “I-A-Q2-090: log P (HCOOH): 4.11”.

With `Nc1c(Cl)c(C(F)(F)F)nn1-c1ccc(C(=O)O)cc1` [XI-A-043], the “log P (HCOOH)” value (HCOOH) is “XI-A-043: log P (HCOOH): 2.34”.

Regarding `Nc1c(-c2cc(Cl)cc(Cl)c2)c(C(F)(F)F)nn1-c1ccc(C(=O)NC2CC2)cn1` [I-A-Q2-106], the “log P (HCOOH)” value (HCOOH) was “I-A-Q2-106: log P (HCOOH): 4.30”.

For the compound `Cc1cc(-n2nc(C(F)(F)F)c(-c3c(F)cc(F)cc3F)c2N)ccc1C(=O)NCC(F)(F)C(F)F` [I-A-Q2-307], the “log P (HCOOH)” value (HCOOH) is “I-A-Q2-307: log P (HCOOH): 3.27”.

For the compound `Cc1cc(-n2nc(C(F)(F)F)c(-c3ccccc3C)c2N)ccc1C(=O)NCC(F)(F)C(F)F` [I-A-Q2-317], the “log P (HCOOH)” value (HCOOH) is reported as “I-A-Q2-317: log P (HCOOH): 3.32”.

Turning to `Nc1c(-c2ccc(Cl)c(Cl)c2)c(C(F)(F)F)nn1-c1ccc(C(=O)NCc2ccccn2)cc1` [I-A-Q2-158], the “log P (HCOOH)” value (HCOOH) is “I-A-Q2-158: log P (HCOOH): 2.85”.

`C=CCNC(=O)c1ccc(-n2nc(C(F)(F)F)c(-c3cc(Cl)cc(Cl)c3)c2N)cc1` [I-A-Q2-144]: the “log P (HCOOH)” value (HCOOH) was “I-A-Q2-144: log P (HCOOH): 3.93”.

`Cc1cc(-n2nc(C(F)(F)Oc3ccccc3)c(-c3cc(Cl)cc(C(F)(F)F)c3)c2N)ccc1C(=O)NCC(F)(F)C(F)F` [I-A-Q2-299]: the “log P (HCOOH)” value (HCOOH) is on record as “I-A-Q2-299: log P (HCOOH): 4.51”.

Take `COC(C)c1nn(-c2ccc(-n3cncn3)c(C#N)c2)c(N)c1-c1cc(Cl)cc(C(F)(F)F)c1` (stereo not shown) [I-A-Q1-023]: under setting [1], the “log P (HCOOH)” value is listed as “I-A-Q1-023: log P (HCOOH): 2.76”.

For the compound `Cc1cc(-n2nc(C(F)(F)F)c(-c3cc(Cl)cc(Cl)c3)c2N)ccc1C(=O)NCC(=O)N1CCOCC1` [I-A-Q2-031], the “log P (HCOOH)” value (HCOOH) was “I-A-Q2-031: log P (HCOOH): 3.33”.

Turning to `Cc1cc(-n2nc(C(F)(F)F)c(-c3cc(Cl)cc(Cl)c3)c2N)ccc1C(=O)NCc1ccccc1F` [I-A-Q2-112], the “log P (HCOOH)” value (HCOOH) is “I-A-Q2-112: log P (HCOOH): 4.34”.
